Laboratory results as given in patent US10259807B2, “1-(piperazin-1-yl)-2-([1,2,4]triazol-1-yl)-ethanone derivatives” (Idorsia Pharmaceuticals Ltd., priority 2013, dated 2019).
Blank lines part the entries; values can stand above or below the compound they belong to.

Test: Determination of pharmacokinetic parameters in rats
Conditions: for AUC: male, Wistar (RccHan:WIST), rat, po, 2 mg/kg
Experimental: Male Wistar rats (RccHan:WIST) were obtained from Harlan (Venray, The Netherlands) and used for pharmacokinetic experiments after an acclimatization period of at least 7 days. The body weight of the rats was about 250 g at the day of the experiment. Two days prior to dosing, rats were anesthetized for surgery via inhalation of isoflurane (4-5% for induction and 1.5-3% for maintenance) in oxygen. Buprenorphine was dosed as analgesic at 0.03 mg/kg sc half an hour before surgery. Under aseptic conditions, catheters were implanted into jugular vein for dosing and carotid artery to allow for multiple serial blood sampling. […] Compounds were administered intravenously via a 5-minute infusion at doses of 0.5 or 1 mg/kg body weight formulated as solutions in water prepared by pH adjustment or as an aqueous mixed micellar vehicle based on phospholipids and bile acids (mixed micelles). […] Oral formulations were solutions in water prepared by pH adjustment or dispersions prepared by addition of a DMSO stock solution of the compounds to methylcellulose (0.5% w/v) in water. […] Blood samples were centrifuged at 3000 g (10 minutes, 4° C.) and plasma was submitted to LC-MS/MS analysis.

SMILES: Cc1nc(C)n(CC(=O)N2CCN(c3sc(C(F)(F)F)nc3-c3cnc(C(F)(F)F)nc3)C[C@H]2C)n1 [Example 24, 2-(3,5-Dimethyl-[1,2,4]triazol-1-yl)-1-{(R)-2-methyl-4-[2-trifluoromethyl-4-(2-trifluoromethyl-pyrimidin-5-yl)-thiazol-5-yl]-piperazin-1-yl}-ethanone]
plasma concentration after oral administration (compared to reference compounds disclosed in WO 2010/126811): surprisingly high plasma concentration | AUC (in vivo, pH 2.1): 14000 ng·h/mL

AUC (plasma): 202 ng·h/mL
SMILES: CSc1ncc(-c2cc(C(F)(F)F)ccc2N2CCN(C(=O)Cn3nc(C)cc3C)CC2)cn1 [reference compound 2, 2-(3,5-Dimethyl-pyrazol-1-yl)-1-{4-[2-(2-methylsulfanyl-pyrimidin-5-yl)-4-trifluoromethyl-phenyl]-piperazin-1-yl}-ethanone]

AUC (plasma): 273 ng·h/mL
SMILES: COc1ncc(-c2cc(C(F)(F)F)ccc2N2CCN(C(=O)Cn3nc(C)cc3C)CC2)cn1 [reference compound 1, 2-(3,5-Dimethyl-pyrazol-1-yl)-1-{4-[2-(2-methoxy-pyrimidin-5-yl)-4-trifluoromethyl-phenyl]piperazin-1-yl}-ethanone]

AUC (plasma, pH 3.03): 271 ng·h/mL
SMILES: CNc1ncc(-c2cc(C(F)(F)F)ccc2N2CCN(C(=O)Cn3nc(C)cc3C)CC2)cn1 [reference compound 3, 2-(3,5-Dimethyl-pyrazol-1-yl)-1-{4-[2-(2-methylamino-pyrimidin-5-yl)-4-trifluoromethyl-phenyl]-piperazin-1-yl}-ethanone]
